Literature values as cited in patent US20120238559A1, “NOVEL COMPOUNDS” (GLAXO GROUP LIMITED, priority 2009, published 2012).

How the values were obtained:
neutrophils [1] = tested on: neutrophils
Class I PI3-kinases = settings: each of the four Class I PI3-kinases; read-out: IC50 against each of the various Class I PI3-kinases
neutrophils [2] = settings: treatment of neutrophils; Thelen et al. 1994

Row | SMILES | neutrophil migration and superoxide release (neutrophils [1]) | IC50 (Class I PI3-kinases) | fMLP-induced respiratory burst response (neutrophils [2])
1 | O=c1cc(N2CCOCC2)oc2c(-c3ccccc3)cccc12 [LY294002] | block neutrophil migration and superoxide release | – | –
2 | COC[C@H]1OC(=O)c2coc3c2[C@@]1(C)C1=C(C3=O)[C@@H]2CCC(=O)[C@@]2(C)C[C@H]1OC(C)=O [wortmannin] | block neutrophil migration and superoxide release | 1 to 10 nM | prevents the fMLP-induced respiratory burst response
